{"source": "patent US10272056B2", "about": "“Treatment for mitochondrial diseases” (The George Washington University a Congressionally …, priority 2015, dated 2019)", "key": {"MELAS fibroblasts": {"system": "MELAS fibroblasts", "assay": "Relative cellular ATP levels (magnesium green dye)", "assay_type": "cell-based, human", "protocol": "FIG. 19 is a graph showing that NaBt augments the relative cellular ATP levels in MELAS fibroblasts. The relative cellular ATP content was examined by a fluorescent probe, magnesium green (Mg Gr). MELAS fibroblasts were treated for 6 and 24 hours with NaBt (2.5 m M) before being labeled with Mg-Gr.\nTo assess relative cellular ATP levels in live MELAS fibroblasts, the fluorescent magnesium green (Mg-Gr) dye, which has been successfully employed in live patient fibroblasts, was used. Fluorescence emission from the Mg-Gr dye is directly proportional to the concentration of intracellular free Mg2+ concentration. Since the affinity of Mg2+ for ATP is about ten times higher than its affinity for ADP or AMP, the fluorescence intensity is inversely correlated with the intracellular levels of ATP. A time course exposure to NaBt ([…]) was performed using MELAS fibroblasts from one patient that has been comprehensively evaluated in terms of mitochondrial mass, mitochondrial membrane potential, and mitochondrial dynamics and networking (FIGS. 17 and 18). […] Thus, butyrates augment the functional mitochondrial mass in dermal MELAS fibroblasts, thereby reversing their deficits in mitochondrial mass and bioenergetics capacity."}, "neuronal cells": {"system": "neuronal cells", "assay": "Live cell Mg2+-based ATP assay", "settings": "NaBt-treated cells", "protocol": "FIG. 9A-9C are graphs and images from microscopy showing that NaBt enhances mitochondrial bioenergetics. (A) Flow cytometric analysis of Δψm; *p<0.001. (B) ATP levels in live cells using a Mg^2+-based assay; *p<0.001. (C) Electron microscopy of mitochondria in control and NaBt-treated cells; scale bar=200 nm.\nNaBt increases mitochondrial membrane potential (Δψm) and ATP levels. The MTR-based data raised the question: could NaBt also enhance mitochondrial bioenergetics? Δψm was assessed by live cell confocal microscopy and flow cytometry using the TMRM dye, which accumulates in the mitochondrial matrix in a Δψm-dependent fashion. A 1.5-fold increase in Δψm in NaBt-treated cells was observed (FIG. 9A). To test whether enhanced Δψm led to increased ATP output, ATP levels were monitored using the live cell Mg^2+-based ATP assay, which is compatible with the TMRM dye, allowing simultaneous recordings. A 1.6-fold increase in ATP levels in NaBt-treated cells was observed (FIG. 9B), in line with the MTR- and TMRM-based findings and the elongated mitochondrial morphology."}, "PC12-ND6 cells [1]": {"system": "PC12-ND6 cells", "assay": "Neurite outgrowth with dbcAMP", "assay_type": "cell-based", "protocol": "FIG. 13A-13E are images from microscopy and graphs showing that the timing of NaBt treatment is critical for enhancing neuronal differentiation of PC12-ND6 cells upon sub-optimal neurotrophic cues. (A) Confocal micrographs of PC12-ND6 cells treated with dbcAMP alone or with NaBt (5 mM) in a simultaneous or sequential manner. Scale bar represents 5 μm. (B) Graph of neurite length. Mean±SEM (n=50 for each condition; compared to control (no NaBt) *p=0.0001 and **p=0.0009). (C) Confocal micrographs of PC12-ND6 cells treated with sub-optimal NGF concentration (10 ng/ml) alone or first NaBt (5 mM) in a simultaneous or sequential manner. Scale bar represents 10 μm. (D) Graph of average total neurite length. Mean±SEM (n=50 for each condition; compared to control *p=0.0001). (E) Graph of the frequency of total neurite length below and above 90 μm.\nThe timing of NaBt pre-treatment is critical for enhancing neuronal differentiation of PC12-ND6 cells and potentiating sub-optimal neurotrophic cues. We next investigated whether NaBt-mediated increase of mitochondrial biogenesis could potentiate subsequent sub-optimal neurotrophic cues to trigger effective neurite outgrowth in PC12-ND6 cells and whether a temporal window for NaBt responsiveness might exist. […]"}, "PC12-ND6 cells [2]": {"system": "PC12-ND6 cells", "assay": "Mitochondrial mass (mito-GFP live cell microscopy, MTG/MTR flow cytometry)", "assay_type": "cell-based", "protocol": "PC12-ND6 cells were transfected with the mito-GFP vector prior to treatment with NaBt (5 mM) for the indicated time points. Mitochondria were visualized by live cell microscopy; scale bar=5 μm.\nFIG. 7A-7F show images from microscopy and graphs showing NaBt increases mitochondrial mass. (A) Live cell confocal microscopy of E17.5 hippocampal neurons; high magnification in inset; scale bar=5 (B) Quantitative analysis of the mitochondrial biomass in E17.5 neurons using an anti-CoxVα antibody; *p<0.001. (C) Live cell confocal microscopy of PC12-ND6 cells; high magnification in inset; scale bar=5 (D) Flow cytometric analysis of mitochondrial mass; *p<0.001. (E) Confocal microscopy of E17.5 brains from E12.5 pregnant dams treated with PBS (sham) or NaBt; scale bar=20 (F) Quantitative analysis of mitochondrial mass; *p<0.001.\nExperimental approaches. Five distinct molecular tools were used to investigate mitochondrial biogenesis: 1) the mitochondrial-specific dyes, MitoTracker® Green (MTG) and MitoTracker® Red (MTR); 2) the mito-GFP or mito-dsRed vector to fluorescently label mitochondria; 3) antibodies against mtDNA, COXVα, or SOD2; 4) the fluorescent PicoGreen® dye labeling mtDNA; and 5) quantitative PCR to determine mtDNA copy number.\nNaBt increases the mitochondrial biomass of neuronal cells in vitro and in vivo. To investigate the effect of NaBt on mitochondrial mass, PC12-ND6 cells were transfected with the mito-GFP vector before performing a time course analysis of NaBt (5 mM) treatment.\nThe effect of NaBt was investigated in embryonic neuronal progenitor cells, E17.5 hippocampal neurons, which were transfected with the mito-GFP vector and then exposed to various concentrations of NaBt. […] Therefore, all subsequent treatment of E17.5 hippocampal neurons with NaBt was performed in the presence of 2 mM. […] Flow cytometric analysis using MTG- or MTR-labeled cells corroborated the NaBt-mediated increase in mitochondrial mass (FIG. 7D)."}, "[3]": {"settings": "flow cytometry, NaBt-treated vs control"}}, "data": [{"smiles": "CCCC(=O)[O-].[Na+]", "note": "[NaBt, sodium butyrate]", "values": [{"measurement": "relative cellular ATP levels", "setting": "MELAS fibroblasts; 24 hours NaBt 2.5 mM", "result": "became more accentuated"}, {"measurement": "relative cellular ATP levels", "setting": "MELAS fibroblasts; first 24 hours of NaBt (2.5 mM) treatment", "result": "steady increase in relative cellular ATP levels"}, {"measurement": "relative cellular ATP levels", "setting": "MELAS fibroblasts; six hours NaBt 2.5 mM", "result": "increase in relative cellular ATP levels"}, {"measurement": "increase in ATP levels", "setting": "neuronal cells", "result": 1.6, "unit": "fold"}, {"measurement": "neuritogenesis upon co-addition", "setting": "PC12-ND6 cells [1]; NaBt 5 mM and dbcAMP 1 mM added together", "result": "severely dampened"}, {"measurement": "neurite length", "setting": "PC12-ND6 cells [1]; NaBt pre-treatment three days at highest dose, then dbcAMP 1 mM 24 hours", "result": 50, "unit": "μm"}, {"measurement": "time of maximal increase of the mitochondrial biomass", "setting": "PC12-ND6 cells [2]; NaBt 5 mM, mito-GFP time course", "result": "after three days"}, {"measurement": "increase in fluorescence intensity, MTR staining", "setting": "PC12-ND6 cells [2]; [3]", "result": 3.5, "unit": "fold"}, {"measurement": "increase in mitochondrial mass, MTG staining", "setting": "PC12-ND6 cells [2]; [3]", "result": "two-fold"}]}]}
